Measured values from ChEMBL document CHEMBL3885861, “Open TG-GATES”.

Species on record: Rattus norvegicus
Experiment: Open TG-GATES - Regimen: Daily Repeat
Format: toxicity, organism-based, Sprague-Dawley
Design: regimen Daily Repeat, gender Male, age 6 weeks
Conditions: in vivo, po, 300 mg/kg, route gavage, dose level Middle; for APTT / Bas / Eos / Fbg / Hb / Ht / Lym / MCH / MCHC / MCV / Mono / Neu / PT / Plat / RBC / Ret / WBC: tissue Blood; for KIDNEY_L / KIDNEY_R / KIDNEY_TOTAL: tissue Kidney; for LIVER: tissue Liver; for A/G / ALP / ALT / AST / BUN / CRE / Ca / Cl / DBIL / GLC / IP / K / LDH / Na / PL / RALB / TBIL / TC / TG / TP / gamma-GTP: tissue Plasma

Compound: CN/C(=N/CCSCc1nc[nH]c1C)NC#N [CIMETIDINE]
- TERMINAL_BW (72 h, time 3 day): 228.5 g
- APTT (72 h, time 3 day): 18.9 s
- Bas (72 h, time 3 day): 0%
- Eos (72 h, time 3 day): 1%
- Fbg (72 h, time 3 day): 228.2 mg/dL
- Hb (72 h, time 3 day): 13.1 g/dL
- Ht (72 h, time 3 day): 39.2%
- Lym (72 h, time 3 day): 80%
- MCH (72 h, time 3 day): 21.3 pg
- MCHC (72 h, time 3 day): 33.6%
- MCV (72 h, time 3 day): 63.5 fL
- Mono (72 h, time 3 day): 2.6%
- Neu (72 h, time 3 day): 14.8%
- PT (72 h, time 3 day): 12.4 s
- Plat (72 h, time 3 day): 125.9 x10_4/uL
- RBC (72 h, time 3 day): 616.6 x10_4/ul
- Ret (72 h, time 3 day): 6%
- WBC (72 h, time 3 day): 104.1 x10_2/uL
- KIDNEY_L (72 h, time 3 day): 1 g
- KIDNEY_R (72 h, time 3 day): 1 g
- KIDNEY_TOTAL (72 h, time 3 day): 2 g
- LIVER (72 h, time 3 day): 11.4 g
- A/G (72 h, time 3 day): 1.6
- ALP (72 h, time 3 day): 1094.2 IU/L
- ALT (72 h, time 3 day): 37.6 IU/L
- AST (72 h, time 3 day): 67.2 IU/L
- BUN (72 h, time 3 day): 15.8 mg/dL
- CRE (72 h, time 3 day): 0.4 mg/dL
- Ca (72 h, time 3 day): 11.1 mg/dL
- Cl (72 h, time 3 day): 102.4 meq/L
- DBIL (72 h, time 3 day): 0.1 mg/dL
- GLC (72 h, time 3 day): 195 mg/dL
- IP (72 h, time 3 day): 7.2 mg/dL
- K (72 h, time 3 day): 4.1 meq/L
- LDH (72 h, time 3 day): 140.8 IU/L
- Na (72 h, time 3 day): 140.8 meq/L
- PL (72 h, time 3 day): 156.2 mg/dL
- RALB (72 h, time 3 day): 3.5 g/dL
- TBIL (72 h, time 3 day): 0.2 mg/dL
- TC (72 h, time 3 day): 79.2 mg/dL
- TG (72 h, time 3 day): 119.8 mg/dL
- TP (72 h, time 3 day): 5.7 g/dL
- gamma-GTP (72 h, time 3 day): 0.6 IU/L
- TERMINAL_BW ([…], time 7 day): 259.4 g
- TERMINAL_BW ([…], time 14 day): 317.5 g
- TERMINAL_BW ([…], time 28 day): 390.1 g
- APTT ([…], time 7 day): 19.2 s
- Bas ([…], time 7 day): 0%
- Eos ([…], time 7 day): 1%
- Fbg ([…], time 7 day): 222.6 mg/dL
- Hb ([…], time 7 day): 13.6 g/dL
- Ht ([…], time 7 day): 40.9%
- Lym ([…], time 7 day): 78.2%
- MCH ([…], time 7 day): 21 pg
- MCHC ([…], time 7 day): 33.1%
- MCV ([…], time 7 day): 63.2 fL
- Mono ([…], time 7 day): 2.6%
- Neu ([…], time 7 day): 16.6%
- PT ([…], time 7 day): 12.6 s
- Plat ([…], time 7 day): 127.8 x10_4/uL
- RBC ([…], time 7 day): 646.8 x10_4/ul
- Ret ([…], time 7 day): 5.3%
- WBC ([…], time 7 day): 107.7 x10_2/uL
- APTT ([…], time 14 day): 18.9 s
- Bas ([…], time 14 day): 0%
- Eos ([…], time 14 day): 1%
- Fbg ([…], time 14 day): 222.4 mg/dL
- Hb ([…], time 14 day): 14.2 g/dL
- Ht ([…], time 14 day): 42.9%
- Lym ([…], time 14 day): 80%
- MCH ([…], time 14 day): 20 pg
- MCHC ([…], time 14 day): 32.9%
- MCV ([…], time 14 day): 60.6 fL
- Mono ([…], time 14 day): 2.8%
- Neu ([…], time 14 day): 15.8%
- PT ([…], time 14 day): 12.7 s
- Plat ([…], time 14 day): 125.7 x10_4/uL
- RBC ([…], time 14 day): 709.6 x10_4/ul
- Ret ([…], time 14 day): 4.3%
- WBC ([…], time 14 day): 117.5 x10_2/uL
- APTT ([…], time 28 day): 18.7 s
- Bas ([…], time 28 day): 0%
- Eos ([…], time 28 day): 1%
- Fbg ([…], time 28 day): 225.2 mg/dL
- Hb ([…], time 28 day): 14.6 g/dL
- Ht ([…], time 28 day): 42.1%
- Lym ([…], time 28 day): 82.6%
- MCH ([…], time 28 day): 19.5 pg
- MCHC ([…], time 28 day): 34.6%
- MCV ([…], time 28 day): 56.3 fL
- Mono ([…], time 28 day): 2.2%
- Neu ([…], time 28 day): 13.2%
- PT ([…], time 28 day): 13 s
- Plat ([…], time 28 day): 108.2 x10_4/uL
- RBC ([…], time 28 day): 747.2 x10_4/ul
- Ret ([…], time 28 day): 2.5%
- WBC ([…], time 28 day): 140.1 x10_2/uL
- KIDNEY_L ([…], time 7 day): 1.1 g
- KIDNEY_R ([…], time 7 day): 1.1 g
- KIDNEY_TOTAL ([…], time 7 day): 2.2 g
- KIDNEY_L ([…], time 14 day): 1.2 g
- KIDNEY_R ([…], time 14 day): 1.2 g
- KIDNEY_TOTAL ([…], time 14 day): 2.4 g
- KIDNEY_L ([…], time 28 day): 1.4 g
- KIDNEY_R ([…], time 28 day): 1.4 g
- KIDNEY_TOTAL ([…], time 28 day): 2.8 g
- LIVER ([…], time 7 day): 12.3 g
- LIVER ([…], time 14 day): 14.6 g
- LIVER ([…], time 28 day): 16.3 g
- A/G ([…], time 7 day): 1.5
- ALP ([…], time 7 day): 951.8 IU/L
- ALT ([…], time 7 day): 32.2 IU/L
- AST ([…], time 7 day): 64.6 IU/L
- BUN ([…], time 7 day): 17.6 mg/dL
- CRE ([…], time 7 day): 0.4 mg/dL
- Ca ([…], time 7 day): 10.8 mg/dL
- Cl ([…], time 7 day): 102.4 meq/L
- DBIL ([…], time 7 day): 0.094 mg/dL
- GLC ([…], time 7 day): 234.6 mg/dL
- IP ([…], time 7 day): 7.6 mg/dL
- K ([…], time 7 day): 3.8 meq/L
- LDH ([…], time 7 day): 168 IU/L
- Na ([…], time 7 day): 141.4 meq/L
- PL ([…], time 7 day): 156.2 mg/dL
- RALB ([…], time 7 day): 3.4 g/dL
- TBIL ([…], time 7 day): 0.1 mg/dL
- TC ([…], time 7 day): 73.4 mg/dL
- TG ([…], time 7 day): 120 mg/dL
- TP ([…], time 7 day): 5.6 g/dL
- gamma-GTP ([…], time 7 day): 1.4 IU/L
- A/G ([…], time 14 day): 1.4
- ALP ([…], time 14 day): 1080.4 IU/L
- ALT ([…], time 14 day): 37.8 IU/L
- AST ([…], time 14 day): 65.8 IU/L
- BUN ([…], time 14 day): 19.2 mg/dL
- CRE ([…], time 14 day): 0.4 mg/dL
- Ca ([…], time 14 day): 10.5 mg/dL
- Cl ([…], time 14 day): 102 meq/L
- DBIL ([…], time 14 day): 0.1 mg/dL
- GLC ([…], time 14 day): 216.2 mg/dL
- IP ([…], time 14 day): 7.2 mg/dL
- K ([…], time 14 day): 3.9 meq/L
- LDH ([…], time 14 day): 176.4 IU/L
- Na ([…], time 14 day): 140.6 meq/L
- PL ([…], time 14 day): 164.2 mg/dL
- RALB ([…], time 14 day): 3.3 g/dL
- TBIL ([…], time 14 day): 0.2 mg/dL
- TC ([…], time 14 day): 77.6 mg/dL
- TG ([…], time 14 day): 129 mg/dL
- TP ([…], time 14 day): 5.8 g/dL
- gamma-GTP ([…], time 14 day): 1 IU/L
- A/G ([…], time 28 day): 1.3
- ALP ([…], time 28 day): 725.6 IU/L
- ALT ([…], time 28 day): 39.4 IU/L
- AST ([…], time 28 day): 67 IU/L
- BUN ([…], time 28 day): 18.6 mg/dL
- CRE ([…], time 28 day): 0.5 mg/dL
- Ca ([…], time 28 day): 10.1 mg/dL
- Cl ([…], time 28 day): 101.8 meq/L
- DBIL ([…], time 28 day): 0.1 mg/dL
- GLC ([…], time 28 day): 253 mg/dL
- IP ([…], time 28 day): 6.7 mg/dL
- K ([…], time 28 day): 3.4 meq/L
- LDH ([…], time 28 day): 183.8 IU/L
- Na ([…], time 28 day): 140.2 meq/L
- PL ([…], time 28 day): 148 mg/dL
- RALB ([…], time 28 day): 3.3 g/dL
- TBIL ([…], time 28 day): 0.2 mg/dL
- TC ([…], time 28 day): 70.6 mg/dL
- TG ([…], time 28 day): 128 mg/dL
- TP ([…], time 28 day): 5.8 g/dL
- gamma-GTP ([…], time 28 day): 1.2 IU/L
